According to paper PMC11684019, “Unveiling the Antimycobacterial Potential of Novel 4-Alkoxyquinolines: Insights into Selectivity, Mechanism of Action, and In Vivo Exposure” (Journal of Medicinal Chemistry, 2024):
Values after ≈ are worked out from the molar mass of the structure shown. Values joined by “and” are separate entries in the source; they are usually repeats but may differ in a detail not shown here. Identical values can stand only once. Like-named read-outs stand apart in the source and are kept apart here. Marks after values point to notes of the source that are not given here.

Assays:
[1] = system: M. tuberculosis H37Rv strain; assay: microbe, parasite or virus in culture; format: cell-based, Mycobacterium tuberculosis; conditions: M. tuberculosis H37Rv, resazurin-based assay
[2] = system: M. tuberculosis strain PT2 (MDR clinical isolate); format: cell-based, Mycobacterium tuberculosis
[3] = system: M. tuberculosis strain PT12 (MDR clinical isolate); format: cell-based, Mycobacterium tuberculosis
[4] = system: M. tuberculosis strain PT20 (MDR clinical isolate); format: cell-based, Mycobacterium tuberculosis
[5] = system: Staphylococcus aureus ATCC 25923; format: cell-based; conditions: ATCC 25923, tested at 20 μM, 24 h
[6] = system: Escherichia coli ATCC 25922; format: cell-based; conditions: ATCC 25922, tested at 20 μM, 24 h
[7] = system: Acinetobacter baumannii multidrug-resistant clinical isolate; format: cell-based; conditions: tested at 20 μM, 24 h
[8] = system: Klebsiella pneumoniae multidrug-resistant clinical isolate; format: cell-based; conditions: tested at 20 μM, 24 h
[9] = 24 h, 10 μM
Protocol: The assessment of chemical stability at different pH levels provides insights into the quantity or concentration of the test compound that remains unchanged and, consequently, available for absorption. […] Following this incubation period, the test compounds were quantified using HPLC-MS/MS, with alprenolol serving as the analytical control. This experiment was conducted by CEMSA (São Paulo, SP, Brazil).

[10] = system: M. tuberculosis H37Rv strain in murine macrophage RAW 264.7 cells; format: cell-based, Mycobacterium tuberculosis; conditions: for Reduction of Mtb load compared to the untreated group: 5 days
HepG2 cells [11] = conditions: read-out: CC50 HepG2; MTT method, 72 h
HepG2 cells [12] = conditions: read-out: CC50 HepG2; Neutral Red method, 72 h
Vero cells [13] = conditions: read-out: CC50 Vero; MTT method, 72 h
Vero cells [14] = conditions: read-out: CC50 Vero; Neutral Red method, 72 h
[15] = 10 μM, pH 7.4, 5 h, 25 °C
[16] = rat liver microsomes, 2 μM, NADPH, 37 °C
[17] = mice; for Plasma concentration: 300 mg/kg single dose gavage
[18] = Aqueous solubility (UHPLC-DAD); conditions: 25 °C, 4 h

CCc1ccc(NCCCOc2cc(C)nc3ccc(Br)cc23)cc1 [8t, N-(3-((6-bromo-2-methylquinolin-4-yl)oxy)propyl)-4-ethylaniline]
MIC [1]: 0.05 µM (≈ 0.02 µg/mL) | MIC PT2 [2]: <0.05 µM | MIC PT12 [3]: <0.05 µM | MIC PT20 [4]: <0.05 µM | MIC S. aureus [5]: MIC S. aureus = > 20 μM | MIC E. coli [6]: MIC E. coli = > 20 μM | MIC A. baumannii [7]: MIC A. baumannii = > 20 μM | MIC K. pneumoniae [8]: MIC K. pneumoniae = > 20 μM | Chemical Stability pH 1.2 (percentage of remaining compound) ([9]; 0.1 M HCl, 37 °C): Chemical Stability ^b pH 1.2 ^c = 100% | Chemical Stability pH 9.1 (percentage of remaining compound) ([9]; 0.1 M NH4HCO3, 37 °C): Chemical Stability ^b pH 9.1 ^e = 6.0% | Chemical Stability pH 7.4 (percentage of remaining compound) ([9]; PBS, 37 °C): Chemical Stability ^b pH 7.4 ^d = 5.3% | Kind of effect on intracellular growth of M. tuberculosis H37Rv [10]: bacteriostatic effect | Log10 CFU/well (Mean ± SD) [10]: 3.90 ± 0.30 ^d Log10 CFU/well and 4.10 ± 0.02 ^d Log10 CFU/well | Reduction of Mtb load compared to the untreated group ([10]; 1 μM): 1.27 log10 CFU | Reduction of Mtb load compared to the untreated group ([10]; 5 μM): 1.07 log10 CFU | CC50 (HepG2 cells [11]): > 20 µM | CC50 (HepG2 cells [12]): > 20 µM | CC50 (Vero cells [13]): > 20 µM | CC50 (Vero cells [14]): 11.8 µM | PAMPA permeability [15]: PAMPA = 0.2 × 10^−6 cm/s | Clint (intrinsic clearance) [16]: Clint ^f = 58 mL/min/kg | t1/2 (half-life) [16]: t1/2 ^g = 7.0 min | Ke (elimination rate constant) ([17]; 300 mg/kg gavage): 0.16 h^–1 | Plasma concentrations for a span of up to 8 h ([17]; 300 mg/kg gavage): exceeding 7.49 μM | Tmax ([17]; 300 mg/kg gavage): 1 h | t1/2 (elimination half-life) ([17]; 300 mg/kg gavage): 4.3 ± 1.2 h | Cmax ([17]; 300 mg/kg gavage, noncompartmental analysis): 32.1 ± 3.9 µM | AUC0-t ([17]; 300 mg/kg gavage, time 0 to 8 h): 127.5 ± 5.7 µM·h | Plasma concentration ([17]; 0.5 h): 11.10 ± 1.24 µM | Plasma concentration ([17]; 0.75 h): 15.73 ± 1.61 µM | Plasma concentration ([17]; 1 h): 32.15 ± 3.94 µM | Plasma concentration ([17]; 4 h): 13.45 ± 2.01 µM | Plasma concentration ([17]; 8 h, 300 mg/kg): 9.80 µM and 9.80 ± 2.13 µM | Solubility pH 1.2 ([18]; 0.1 M HCl solution): >2,500 μM | Solubility pH 9.1 ([18]; 0.1 M NH4HCO3 solution): 30.22 μM | Solubility pH 7.4 ([18]; PBS): 35.3 μM
